Source: US11331333B2, “Treatment of aberrant fibroblast proliferation” (Georg August Universitaet Goettingen Stiftung Oeffentlichen …, priority 2019, dated 2022)

Experiments:
[1] = test system: EYA1A^tg mice challenged with UUO; experiment: Unilateral ureteral obstruction (UUO) kidney fibrosis in EYA1A^tg mice; type: in vivo, mouse
Description: From 3 days before surgery, C57BL/6 (referred as wildtype) or transgenic mice overexpressing human splice variants EYA1A (rtTACMV;hEYA1A-pTreTight, referred to as EYA1A^tg) and EYA1C (rtTACMV;hEYA1C-pTreTight, referred to as EYA1C^tg) were treated with either vehicle buffer (glucose 5%) or DOX (2 mg/ml, Sigma, St. Louis, USA) within drinking water ad libidum and renewal every 2 days.
Mice were anesthetized with isoflurane inhalation (2-3%), analgesia was performed by subcutaneous injection of 0.1 mg/kg body weight per day Buprenorphine. The ureter was separated from the surrounding tissues and two ligatures were placed about 5 mm apart in upper two-thirds of the left ureter to obtain reliable obstruction. Mice were sacrificed 3, 7 or 10 days after ureteral obstruction for further analyses.
Mice were injected intraperitoneally with Na3VO4 (8 mg/kg i.p. once per day, Sigma, St. Louis, USA) or caffeine (12.5 mg/kg i.p. once per day, Sigma, St. Louis, USA) starting one day prior of surgery, control mice received equivalent volume of PBS or DMSO.
Mice were injected intraperitoneally with SCR7 (20 mg/kg i.p. every alternate day, Sigma, St. Louis, USA) starting one day prior of surgery, control mice received equivalent volume of DMSO.
The inventors obtained 25 nucleotide antisense morpholino sequences (Gene Tools, Philomath, USA). The in vivo morpholinos contain a covalently linked octaguanidine dendrimer as a delivery moiety to facilitate entry into cells in vivo. Mice were injected intraperitoneally with 12.5 mg/kg body weight in vivo morpholinos in saline at a final volume of 100 μL every other day starting two days prior of surgery. A control in vivo
Lentiviral pLenti-Sce1 was produced in 293T virus packaging cells after transfection using morpholino that targets a human β-globin intron mutation was used as standard control. In vivo morpholino sequences are those of SEQ ID NOs: 9 (EYA1A-VMO), 10 (53Bp1-VMO) and 16 (control).
Formalin-fixed, paraffin-embedded kidneys and hearts from mice, and HOPE-fixed, paraffin-embedded human specimens were sectioned at 3 μm, Masson's Trichrome Stain (MTS) was performed at the University Medicine Göttingen. For morphometric analysis of interstitial fibrosis in mice and human biopsies, we assessed the fibrotic area using cellSens (Olympus, Tokyo, Japan) software. Ten visual fields were selected randomly for each MTS stained section at 200× magnification and the relative interstitial fibrotic area was evaluated by using a 10 mm^2 graticule.
Formalin-fixed, paraffin-embedded kidney sections from mice as well as from HOPE-fixed, paraffin-embedded human specimens were deparaffinized in xylene and rehydrated in ethanol containing distilled water. For immunofluorescent staining, EYA1 isoform antisera or primary antibodies against αSMA (A5228, Sigma, St. Louis, USA), Collagen-1 (ab34710, Abcam Biochemicals, Cambridge, UK), γH2A.X^pS139 (ab2893, Abcam Biochemicals, Cambridge, UK), γH2A.X^pS139 (05-636, Merck Millipore, Billerica, UK), γH2A.X^pY142 (ab94602, Abcam Biochemicals, Cambridge, UK), p-Chk1^pS317 (12302P, Cell Signaling, Danvers, USA), p-Chk2^pT68 (2197S, Cell Signaling, Danvers, USA), Rpa1 (2267S, Cell Signaling, Danvers, USA), Rad51 (sc-8349, Santa Cruz Biotechnology, Dallas, USA), 53Bp1 (sc-22760, Santa Cruz Biotechnology, Dallas, USA), Xrcc4 (sc-8285, Santa Cruz Biotechnology, Dallas, USA) and GFP (MA5-15256, Thermo Fisher Scientific, Waltham, USA) were used, secondary antibodies were labeled with Alexa Fluor 488, 594 or 647 (Life Technologies, Carlsbad, USA). Renal basement membranes were stained with antibodies against Collagen-4 (1340-30, SouthernBiotech, Birmingham, USA). Nuclear staining was performed using 4′,6-diamidino-2-phenylindole (DAPI, Vector Laboratories, Burlingame, USA). Quantifications were performed per high power field at 400× magnification, representative confocal pictures using an LSM 780 confocal laser scanning microscope (Zeiss, Oberkochen, Germany) are shown.

EYA1A = molecular target: T1, EYA1A (Homo sapiens, UniProt Q99502); experiment: Screen of NCI Mechanistic Set II for EYA1A phosphatase activity with pNPP substrate; type: biochemical; details: transgenic fibroblasts, compared to control cultures
T1 construct: expressed in transfected cells; host or cells: transgenic fibroblasts
T1 sequence (Q99502 1-559 isoform Q99502-2): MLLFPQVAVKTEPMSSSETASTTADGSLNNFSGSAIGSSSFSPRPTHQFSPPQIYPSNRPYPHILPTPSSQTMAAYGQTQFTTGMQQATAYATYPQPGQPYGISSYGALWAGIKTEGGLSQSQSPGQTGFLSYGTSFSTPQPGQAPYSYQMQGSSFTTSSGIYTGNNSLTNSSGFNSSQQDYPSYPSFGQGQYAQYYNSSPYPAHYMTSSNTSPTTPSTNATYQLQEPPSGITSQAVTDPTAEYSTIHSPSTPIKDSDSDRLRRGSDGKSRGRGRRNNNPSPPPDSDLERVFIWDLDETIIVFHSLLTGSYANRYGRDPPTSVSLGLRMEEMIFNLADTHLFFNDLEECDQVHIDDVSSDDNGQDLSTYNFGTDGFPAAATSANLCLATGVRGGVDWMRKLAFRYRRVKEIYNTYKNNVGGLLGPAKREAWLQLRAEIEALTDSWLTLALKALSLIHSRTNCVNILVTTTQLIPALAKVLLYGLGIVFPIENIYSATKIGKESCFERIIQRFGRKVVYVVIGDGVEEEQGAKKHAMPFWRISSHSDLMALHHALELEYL
Description: FIG. 14 illustrates results of a screen for additional compounds for selective modulation of EYA1A phosphatase activity. The EYA1A phosphatase activity was estimated using p-nitrophenyl phosphate (pNPP) substrate. Briefly, phosphatase activity was determined in transgenic fibroblasts and pNP production was determined in comparison to control cultures. Among 736 compounds contained in the NCI mechanistic set (NCI Mechanistic Set II), 228 inhibitors of EYA1A phosphatase activity were identified.
With regard to modulators of the phosphotyrosine phosphatase activity of EYA1, the inventors screened a small molecule library, namely the NCI “Mechanistic Set II library”, obtained from the open chemical repository of the Developmental Therapeutics Program (DTP) of the National Cancer Institute, illustrated by FIG. 14.
p-Nitrophenyl Phosphate (PNPP) is a non-proteinaceous, non-specific substrate used in the art to assay protein, alkaline and acid phosphatases. The PNPP phosphatase activity is measured using a continuous or single-point spectrophotometric assay based on the ability of phosphatases to catalyze the hydrolysis of PNPP to p-nitrophenol, a chromogenic product with absorbance at 405 nm. Any available protocol can be followed to determine phosphatase activity using pNPP.

[2] = SCR7 20 mg/kg i.p. every alternate day, EYA1A overexpressing mice, 10 days after ureteral obstruction
[3] = in vivo morpholino 12.5 mg/kg i.p. every other day, EYA1A^tg mice, UUO, 10 days

EYA1A phosphatase activity (EYA1A)	Compound	further results
	EYA1A-VMO: in vivo morpholino, SEQ ID NO: 9, with covalently linked octaguanidine dendrimer, specifically inhibiting EYA1A translation (CTGCAACTTGAGGAAACAGCAACAT; all phosphorodiamidate morpholino (PMO); octaguanidine dendrimer covalently linked, position not given here, further chemistry not fully specified)	pro-fibrotic effects ([1]; in vivo morpholino 12.5 mg/kg i.p. every other day, EYA1A overexpressing mice, 10 days after ureteral obstruction): reversed pro-fibrotic effects
Strong inhibitors	Hexapotassium hexatriaconta-p-oxooctadecaoxobis [μ9-[phosphato(3-)-κO:κO:κO:κO′:κO′:κO″:κO″:κO′″:κO′″]]octadeca-molybdate(6-) [NSC No. 622124]	
	O=c1[nH]c(=S)[nH]c(N=Cc2ccccc2)c1N=Cc1ccccc1 [SCR7]	fibroblast accumulation [1, 2]: significantly reduced; fibrosis [1, 2]: significantly reduced
Strong inhibitors	COc1cc2cc3c4cc(OC)c(OC)cc4cc[n+]3c(C)c2cc1OC.O=C([O-])CS(=O)(=O)O [NSC No. 154890, Dibenzo(a,g)quinolizinium, 2,3,10,11-tetramethoxy-8-methyl-sulfoacetate]	
Strong inducers	O=C1C(c2cnc3ccccc3n2)=C(O)c2ccccc21 [NSC No. 634224, 3-hydroxy-2-(2-quinoxalinyl)-1-indenone]	
Strong inhibitors	O=C1C=C(Nc2ccccc2C(=O)CC(=O)C(=O)Nc2ccc(Cl)cc2)c2ccccc2C1=O [NSC No. 641253]	
Strong inducers	O=c1ccc(-c2ccccc2)nn1-c1nc2ccccc2s1 [NSC No. 629659, 2-(2-benzothiazolyl)-6-phenyl-3(2H)-pyridazinone]	
Strong inducers	CN(C)c1cccc(/C=C(\C#N)c2ccccc2)c1 [NSC No. 667251, (Z)-3-[3-(dimethylamino)phenyl]-2-phenylprop-2-enenitrile]	
	53Bp1-VMO: in vivo morpholino, SEQ ID NO: 10, with covalently linked octaguanidine dendrimer, blocking 53Bp1 translation (TCCATCTGCTCCCCTGGCATCC; all phosphorodiamidate morpholino (PMO); octaguanidine dendrimer covalently linked, position not given here, further chemistry not fully specified)	presence of Rpa1 (indicative of HR) ([1]; in vivo morpholino 12.5 mg/kg i.p. every other day, EYA1A-overexpressing mice, UUO): increased presence of Rpa1; 53Bp1 within chronically injured kidneys ([1]; in vivo morpholino 12.5 mg/kg i.p. every other day, EYA1A^tg mice, UUO): Depletion of 53Bp1; fibroblast accumulation [1, 3]: attenuated; renal fibrosis [1, 3]: attenuated
Strong inhibitors	[Mo12O36(PO4)] disodium salt [NSC No. 622116]	
Strong inhibitors	Cc1c2ccncc2cc2c1[nH]c1ccccc12 [NSC 87206, 5-Methyl-6H-pyrido(4,3-b)carbazole]	

Compound	EYA1A phosphatase activity (EYA1A)	further results
N#CC(=C1C=CC(=NO)C=C1)c1ccc(Cl)cc1 [NSC No. 405158, alpha-(p-chlorophenyl)-4-oxo-2,5-cyclohexadiene-δ1,α-acetonitrile oxime]	Strong inducers	
